Measurements taken from article PMC8972196, “A Set of Experimentally Validated Decoys for the Human CC Chemokine Receptor 7 (CCR7) Obtained by Virtual Screening” (Frontiers in Pharmacology, 2022).
Read-outs that look alike come from different tables or passages of the source.

Experiments:
[1] = test system: CCR7; set-up: method as in Jaeger et al., 2019; details: result in words; ref Jaeger et al., 2019; cited from earlier work
[2] = target: T1, human CXCR2 (Homo sapiens, UniProt P25025); test: CXCL8-induced calcium mobilization assay, U87.CD4 cells expressing CXCR2; format: cell-based
T1 construct: expressed in transfected cells
T1 sequence (P25025 1-360): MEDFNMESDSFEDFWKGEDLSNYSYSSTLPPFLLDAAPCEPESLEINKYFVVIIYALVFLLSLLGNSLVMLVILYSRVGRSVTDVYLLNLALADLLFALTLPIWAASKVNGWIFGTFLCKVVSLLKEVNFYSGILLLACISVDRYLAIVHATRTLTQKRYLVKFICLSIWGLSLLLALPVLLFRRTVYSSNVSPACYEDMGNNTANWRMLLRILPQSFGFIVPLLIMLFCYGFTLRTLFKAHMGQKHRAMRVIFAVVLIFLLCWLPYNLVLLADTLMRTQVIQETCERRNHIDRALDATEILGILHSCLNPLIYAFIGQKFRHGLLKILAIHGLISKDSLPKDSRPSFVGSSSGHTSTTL
Procedure: (§1) U87.CD4 cells that stably express either human CCR7, CXCR2, CCR5 or CXCR4 were seeded (20,000 cells/well) in gelatin-coated black-walled polystyrene 96-well plates with clear bottom and incubated overnight at 37°C and 5% CO2. […] Culture medium was removed, and cells were incubated for 45 min at room temperature in the dark. […] Exactly the same protocol was used to record calcium responses in Chinese hamster ovary (CHO)-K1 cells, upon stimulation with adenosine triphosphate (ATP, purchased from Sigma).

[3] = target: T2, human CXCR4 (Homo sapiens, UniProt P61073); test: CXCL12-induced calcium mobilization assay, U87.CD4 cells expressing CXCR4; format: cell-based; details: for effect on CXCR4 mediated calcium response: result in words
T2 construct: expressed in transfected cells
T2 sequence (P61073 whole entry): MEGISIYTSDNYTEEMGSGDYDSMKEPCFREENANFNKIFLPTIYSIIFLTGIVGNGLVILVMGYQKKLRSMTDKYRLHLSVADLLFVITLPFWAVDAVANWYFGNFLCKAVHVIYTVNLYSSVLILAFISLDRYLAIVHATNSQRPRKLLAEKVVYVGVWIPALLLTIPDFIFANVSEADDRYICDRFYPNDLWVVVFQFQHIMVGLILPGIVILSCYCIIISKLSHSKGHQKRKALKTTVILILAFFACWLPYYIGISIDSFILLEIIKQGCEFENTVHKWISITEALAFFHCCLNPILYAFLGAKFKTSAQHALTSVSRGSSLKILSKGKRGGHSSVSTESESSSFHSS
Procedure: U87.CD4 cells that stably express either human CCR7, CXCR2, CCR5 or CXCR4 were seeded (20,000 cells/well) in gelatin-coated black-walled polystyrene 96-well plates with clear bottom and incubated overnight at 37°C and 5% CO2. The next day, a fluorescent Ca^2+-sensitive dye solution (Fluo-2 AM) was prepared as described before ([Claes et al., 2018]). Culture medium was removed, and cells were incubated for 45 min at room temperature in the dark. Meanwhile, 96-well polypropylene plates containing 5-fold concentrated compound dilutions and 5-fold concentrated solution of chemokine ligands (CCL19, CXCL8, LD78-β, CXCL12, respectively; all purchased from PeproTech) were prepared for use with the FLIPR Tetra device (Molecular Devices) as described before ([Claes et al., 2018]). The antagonistic properties of the compounds were calculated based on their capacity to inhibit the Ca^2+ release induced by a fixed concentration of chemokine (i.e. 50 ng/mL final concentration for CCL19, CXCL8 and CXCL12 and 100 ng/ml for LD78-β), as described ([Claes et al., 2018]). Exactly the same protocol was used to record calcium responses in Chinese hamster ovary (CHO)-K1 cells, upon stimulation with adenosine triphosphate (ATP, purchased from Sigma).

[4] = target: T3, human CCR7 (Homo sapiens, UniProt P32248); test: CCR7 competition binding assay with CCL19^AF647 (flow cytometry, whole cells); details: for IC50: inhibition of CCL19^AF647 binding, Mean ± SD of four independent experiments; for inhibition of CCL19^AF647 binding / CCR7 affinity: result in words
T3 construct: expressed in transfected cells
T3 sequence (P32248 25-378): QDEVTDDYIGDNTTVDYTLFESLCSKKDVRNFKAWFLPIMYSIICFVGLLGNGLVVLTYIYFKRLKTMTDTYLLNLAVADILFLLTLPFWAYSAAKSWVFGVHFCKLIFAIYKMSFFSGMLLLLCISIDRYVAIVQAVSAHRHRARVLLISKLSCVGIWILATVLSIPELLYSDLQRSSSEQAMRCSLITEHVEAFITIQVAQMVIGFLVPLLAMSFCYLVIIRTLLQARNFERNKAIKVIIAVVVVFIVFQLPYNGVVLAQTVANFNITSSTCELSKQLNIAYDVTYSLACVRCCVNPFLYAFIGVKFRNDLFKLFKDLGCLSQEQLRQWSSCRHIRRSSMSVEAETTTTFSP
Procedure: In brief, U87.CD4.CCR7 cells were pre-incubated with compound (at different concentrations) in 150 μL assay buffer [Hank’s balanced salt solution (HBSS), 20 mM HEPES and 0.5% Fetal Calf Serum] for 15 min at room temperature (RT) in the dark. Afterwards, 50 μL of CCL19^AF647 was added (25 ng/mL final concentration) and samples were incubated for another 30 min at RT, protected from light. Then, cells were washed twice with assay buffer and fixed in 1% paraformaldehyde in Dulbecco’s phosphate-buffered saline (DPBS).
Samples were immediately analyzed by flow cytometry (FACS Canto II, BD). Data were analysed using Flowjo. The percentage inhibition of CCL19^AF647 binding was calculated according to formula {1—[(MFIX–MFINC)/(MFIPC–MFINC)]} x 100, where MFIX is the mean fluorescence intensity (MFI) of the compound-treated sample, MFINC the MFI of the negative control (i.e., autofluorescence of untreated and unlabeled cells) and MFIPC the MFI of the positive control (i.e., cells exposed to CCL19^AF647 only). […] For each experiment the stain index (SI) was calculated as the ratio of the separation between MFIPC and MFINC, divided by two times the standard deviation of MFINC.

[5] = target: T3, human CCR7; test: CCL19-induced calcium mobilization assay, U87.CD4 cells expressing CCR7; format: cell-based; details: for CCR7 antagonism in calcium mobilization assay: CCL19-induced, result in words
How it was run: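 U87.CD4 cells stably expressing human CCR7, CXCR2 or CCR5 were seeded at 20,000 cells/well and incubated overnight at 37°C and 5% CO2. Cells were then incubated for 45 min at room temperature in the dark before calcium responses were recorded. CCR7 responses were induced with CCL19 and CXCR2 responses with CXCL8.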

[6] = target: T4, human CCR5 (Homo sapiens, UniProt P51681); test: cell-based
T4 construct: expressed in transfected cells
T4 sequence (P51681 whole entry): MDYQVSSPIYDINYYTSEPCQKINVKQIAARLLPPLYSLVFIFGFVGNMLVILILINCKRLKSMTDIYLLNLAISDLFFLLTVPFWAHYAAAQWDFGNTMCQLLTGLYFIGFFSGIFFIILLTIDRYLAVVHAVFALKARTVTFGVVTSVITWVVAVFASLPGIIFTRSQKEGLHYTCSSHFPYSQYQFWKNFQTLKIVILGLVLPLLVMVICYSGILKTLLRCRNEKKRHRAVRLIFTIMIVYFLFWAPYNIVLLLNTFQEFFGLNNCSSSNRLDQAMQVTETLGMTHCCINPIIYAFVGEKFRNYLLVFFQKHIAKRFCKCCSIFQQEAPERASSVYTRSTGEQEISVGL
Procedure: as §1

[7] = test system: ATP-induced Ca2+ release in CHO-K1 cells; test: ATP-induced calcium response in CHO-K1 cells; details: ATP 10 µM final concentration, Fluo-2
Source text: Using CHO-K1 cells, exactly the same experimental set-up as for the chemokine receptor expressing U87 cells was applied, essentially including the same fluorescent calcium dye (Fluo-2) for cell loading.

[8] = test system: human or murine CCR7; set-up: method as in Hull-Ryde et al., 2018; details: ref Hull-Ryde et al., 2018, cited from earlier work; for IC50: read-out: IC50, β-arrestin recruitment
[9] = classification of tested compounds as decoy or active
[10] = CCL19-induced calcium signaling, read-out: IC50 [μM] block CCL19 induced calcium signaling
[11] = CCL19 induced calcium signaling, read-out: IC50 [μM] block CCL19 induced calcium signaling
[12] = classification as decoy or active on CCR7

CCOc1ccc(NC(=O)C2CCN(C3=NS(=O)(=O)C(c4ccc(OC)cc4)=C3C)CC2)cc1 [CS-1]
thermal stabilization of CCR7 [1]: hits in the thermofluor stability assay, albeit less potent than cmp2105 and navarixin

Cc1ccc([C@@H](NC2=NS(=O)(=O)N=C2Nc2ccc(C)c(C(=O)N(C)C)c2O)C(C)(C)C)o1 [Cmp2105, reference compound]
inhibition of CXCR2 mediated calcium mobilization ([2]; result in words): inhibited | effect on CXCR4 mediated calcium response [3]: no (or only very limited) effect

COCCNc1c(Nc2cccc(C#N)c2)c(=O)c1=O [CS-2, 3-((2-((2-Methoxyethyl)amino)-3,4-dioxocyclobut-1-en-1-yl)amino)benzonitrile, reference compound]
IC50 [4]: > 50 µM | inhibition of CCL19^AF647 binding / CCR7 affinity [4]: did not show any CCR7 affinity | thermal stabilization of CCR7 [1]: hits in the thermofluor stability assay, albeit less potent than cmp2105 and navarixin | IC50 [5]: > 50 µM | CCR7 antagonism in calcium mobilization assay [5]: inactive | Decoy – 0 Active – 1 [5, 9]: 0

FC(F)(F)c1cc(NC(=S)Nc2cc(C(F)(F)F)cc(C(F)(F)F)c2)cc(C(F)(F)F)c1 [C040, S=C(NC1=CC(C(F)(F)F)=CC(C(F)(F)F)=C1)NC2=CC(C(F)(F)F)=CC(C(F)(F)F)=C2]
activity in CCR7 competition binding assay ([4]; highest concentration tested (25 µM)): inactive | inhibition of CCL19^AF647 binding / CCR7 affinity [4]: completely devoid of activity | IC50 ([2]; Mean ± SD of at least three independent experiments, read-out: IC50, CXCL8-CXCR2 Ca2+ response): 3 to 18 µM | IC50 ([3]; Mean ± SD of at least three independent experiments, read-out: IC50, CXCL12-CXCR4 Ca2+ response): 3 to 18 µM | IC50 ([6]; Mean ± SD of at least three independent experiments, read-out: IC50, LD78-β-CCR5 Ca2+ response): 3 to 18 µM | inhibition of calcium response induced by ATP [7]: dose-dependently inhibit | IC50 [μM] block CCL19 induced calcium signaling ([5]; CCL19-induced calcium signaling): assay interference | IC50 ([5]; inhibition of CCL19 induced intracellular calcium flux, Mean ± SD of at least three independent experiments, read-out: Calcium assay IC50): 3 to 18 µM

Maraviroc [reference compound]
thermal stabilization of CCR7 [1]: completely lacked the ability to thermally stabilize CCR7 | CCR7 antagonism in calcium mobilization assay [5]: absence of activity | Decoy – 0 Active – 1 [5, 9]: 0

CC(C)(C)c1ccc(S(=O)(=O)Nc2ccc(Cl)cc2C(=O)c2cc[n+]([O-])cc2)cc1 [Vercirnon]
thermal stabilization of CCR7 [1]: completely lacked the ability to thermally stabilize CCR7

CC(C)CCC[C@@H](C)[C@H]1CC[C@H]2[C@@H]3CC[C@H]4C[C@@H](CCC=C(c5cc(Cl)c(O)c(C(=O)O)c5)c5cc(Cl)c(O)c(C(=O)O)c5)CC[C@]4(C)[C@H]3CC[C@]12C [cosalane]
IC50 ([8]; CCL19 used as the natural CCR7 ligand): 0.2 µM | IC50 ([8]; CCL21 used as the agonist): 2.7 µM | activity against human versus murine CCR7 ([8]; result in words): nearly identical activity against the human and murine CCR7 orthologues

CCOC(=O)N1CCC(Nc2c(NCCOC)c(=O)c2=O)CC1 [CS-3, Ethyl 4-((2-((2-methoxyethyl)amino)-3,4-dioxocyclobut-1-en-1-yl)amino)piperidine-1-carboxylate, reference compound]
IC50 [4]: > 50 µM | inhibition of CCL19^AF647 binding / CCR7 affinity [4]: did not show any CCR7 affinity | thermal stabilization of CCR7 [1]: hits in the thermofluor stability assay, albeit less potent than cmp2105 and navarixin | IC50 [5]: > 50 µM | CCR7 antagonism in calcium mobilization assay [5]: inactive | Decoy – 0 Active – 1 [5, 9]: 0

Cc1c(NC(=O)CN(C)Cc2ccc(F)cc2)cccc1C(=O)N(C)C [C099, Cc1c(NC(=O)C[N@H+](C)Cc2ccc(F)cc2)cccc1C(=O)N(C)C]
IC50 [5, 10]: > 50 µM | Decoy – 0 Active – 1 [5, 9]: 0

C/N=C(\NCCC(=O)N(C)C)N[C@H](C)c1ccc(C)o1 [C140, C/[NH+]=C(\NCCC(=O)N(C)C)N[C@H](C)c1ccc(C)o1]
IC50 [5, 10]: > 50 µM | Decoy – 0 Active – 1 [5, 9]: 0

Cc1cc(NCCc2nccs2)nc(-c2cccc([N+](=O)[O-])c2)n1 [C097, Cc1cc(NCCc2nccs2)nc(-c2cccc([N+](=O)[O-])c2)n1]
IC50 [5, 10]: > 50 µM | Decoy – 0 Active – 1 [5, 9]: 0

O=S(=O)(c1cccc(F)c1)N1CC(c2cccnc2)C(c2nc(C3CCCC3)no2)C1 (stereo not shown) [C246, c1cc(cc(c1)S(=O)(=O)N2CC(C(C2)c3nc(no3)C4CCCC4)c5cccnc5)F]
IC50 [5, 11]: > 50 µM | Decoy – 0 Active – 1 [5, 12]: 0

CC1CCc2ccccc2C1NC(=O)CCC(=O)N1CCC(O)CC1 (stereo not shown) [C221, CC1CCc2ccccc2C1NC(=O)CCC(=O)N1CCC(O)CC1]
IC50 [5, 11]: > 50 µM | Decoy – 0 Active – 1 [5, 12]: 0

CC(C)C1(CO)CCCN(C(=O)NCc2ccc(Cl)cc2F)C1 (stereo not shown) [C168, CC(C)C1(CO)CCCN(C(=O)NCc2ccc(Cl)cc2F)C1]
IC50 [5, 11]: > 50 µM | Decoy – 0 Active – 1 [5, 12]: 0

CC[C@@H](Nc1c(Nc2cccc(C(=O)N(C)C)c2O)c(=O)c1=O)c1ccc(C)o1 [Navarixin]
effect on CXCR4 mediated calcium response [3]: no (or only very limited) effect | effect on CCR5 mediated calcium response ([6]; result in words): no (or only very limited) effect

COc1ccc(N(CC(O)CNCCC(C)C)S(=O)(=O)c2ccc(C)cc2)cc1 (stereo not shown) [C248, Cc1ccc(cc1)S(=O)(=O)N(CC(C[NH2+]CCC(C)C)O)c2ccc(cc2)OC]
IC50 [5, 11]: > 50 µM | Decoy – 0 Active – 1 [5, 12]: 0
